System: patients after acute myocardial infarction
Test: Life quality, Seattle Angina Questionnaire (SAQ), same clinical trial
Assay type: in vivo, human
Conditions: FAS; 1 month after treatment
Source text: 3508 patients who were in accordance with the diagnostic standards of AMI for 28 days to 2 years and differentiated as Qi deficiency and blood stagnation syndrome by TCM were studied. 0.5 g Chinese medicine composition prepared by the method of EXAMPLE 1 (Coded as QSYQ) was administrated half an hour after meal, 3 times per day.
There were 19 questions in the Seattle angina questionnaire (SAQ), including 5 parts: physical limitation (PL), anginal stability (AS), anginal frequency (AF), treatment satisfaction (TS) and disease perception (DP). After being given necessary explanation by doctors, the questions were answered independently by patients.
They included the overall survival time, angina pectoris score, TCM symptom score and life quality score, where angina pectoris score, TCM symptom score and life quality score were evaluated at randomization, in 1st, 3rd, 6th, 9th, 12th month after treatment and 18th month after follow-up.
All evaluation results of SAQ were described during the period of observation, and Wilcoxon rank sum test was used for inter-group comparison.
The evaluation results in the SAQ were depicted in different observations, and inter-group comparison was tested by Wilcoxon Rank-sum test.

SMILES: CC(=O)Oc1ccccc1C(=O)O [Control group, aspirine]
- 8th question: Highly satisfied, patients (%): (17.37%)
- 8th question: Mostly dissatisfied, patients (%): (4.07%)
- 8th question: Mostly satisfied, patients (%): (50.29%)
- 8th question: Partly satisfied, patients (%): (27.92%)
- 9th question: Few, patients (%): (26.78%)
- 9th question: Mild, patients (%): (36.07%)
- 9th question: Moderate, patients (%): (18.81%)
- 9th question: Severe, patients (%): (2.24%)
- 9th question: Uneffective, patients (%): (16.11%)
- 10th question: Dissatisfied, patients (%): (22.71%)
- 10th question: Highly satisfied, patients (%): (4.07%)
- 10th question: Mostly dissatisfied, patients (%): (22.94%)
- 10th question: Mostly satisfied, patients (%): (20.70%)
- 10th question: Partly satisfied, patients (%): (29.59%)
- 11th question: Continuously worried, patients (%): (6.71%)
- 11th question: No worried, patients (%): (4.70%)
- 11th question: Occasionally worried, patients (%): (40.94%)
- 11th question: Often worried, patients (%): (20.93%)
- 11th question: Seldom worried, patients (%): (26.72%)
- SAQ 4th question, 1-2 times per week: % of patients: (17.55%)
- SAQ 4th question, 1-2 times per week: number of patients: 306
- SAQ 4th question, 1-3 times per day: % of patients: (6.54%)
- SAQ 4th question, 1-3 times per day: number of patients: 114
- SAQ 4th question, <1 time per week: % of patients: (9.58%)
- SAQ 4th question, <1 time per week: number of patients: 167
- SAQ 4th question, Not used: % of patients: (53.10%)
- SAQ 4th question, Not used: number of patients: 926
- SAQ 4th question, ≧3 times per week: % of patients: (13.19%)
- SAQ 4th question, ≧3 times per week: number of patients: 230
- SAQ 4th question, ≧4 times per day: % of patients: (0.06%)
- SAQ 4th question, ≧4 times per day: number of patients: 1
- SAQ 5th question, Few: % of patients: (21.56%)
- SAQ 5th question, Few: number of patients: 376
- SAQ 5th question, Mild: % of patients: (28.90%)
- SAQ 5th question, Mild: number of patients: 504
- SAQ 5th question, Moderate: % of patients: (17.43%)
- SAQ 5th question, Moderate: number of patients: 304
- SAQ 5th question, None: % of patients: (26.32%)
- SAQ 5th question, None: number of patients: 459
- SAQ 5th question, Not medicated by doctors: % of patients: (3.38%)
- SAQ 5th question, Not medicated by doctors: number of patients: 59
- SAQ 5th question, Severe: % of patients: (2.41%)
- SAQ 5th question, Severe: number of patients: 42
- SAQ 6th question, Dissatisfied: % of patients: (0.46%)
- SAQ 6th question, Dissatisfied: number of patients: 8
- SAQ 6th question, Highly consent: % of patients: (18.00%)
- SAQ 6th question, Highly consent: number of patients: 314
- SAQ 6th question, Mostly dissatisfied: % of patients: (4.01%)
- SAQ 6th question, Mostly dissatisfied: number of patients: 70
- SAQ 6th question, Mostly satisfied: % of patients: (49.14%)
- SAQ 6th question, Mostly satisfied: number of patients: 857
- SAQ 6th question, Partly satisfied: % of patients: (28.38%)
- SAQ 6th question, Partly satisfied: number of patients: 495
- SAQ 7th question, Dissatisfied: % of patients: (0.17%)
- SAQ 7th question, Dissatisfied: number of patients: 3
- SAQ 7th question, Highly satisfied: % of patients: (23.31%)
- SAQ 7th question, Highly satisfied: number of patients: 406
- SAQ 7th question, Mostly dissatisfied: % of patients: (3.10%)
- SAQ 7th question, Mostly dissatisfied: number of patients: 54
- SAQ 7th question, Mostly satisfied: % of patients: (49.94%)
- SAQ 7th question, Mostly satisfied: number of patients: 870
- SAQ 7th question, Partly satisfied: % of patients: (23.48%)
- SAQ 7th question, Partly satisfied: number of patients: 409
- SAQ Question 1-1 Mildly limited, number of patients: 24
- SAQ Question 1-1 Mildly limited, percent of patients: (1.38%)
- SAQ Question 1-1 Moderately limited, number of patients: 11
- SAQ Question 1-1 Moderately limited, percent of patients: (0.63%)
- SAQ Question 1-1 Not limited, number of patients: 1607
- SAQ Question 1-1 Not limited, percent of patients: (92.20%)
- SAQ Question 1-1 Other reasons, number of patients: 4
- SAQ Question 1-1 Other reasons, percent of patients: (0.23%)
- SAQ Question 1-1 Severely limited, number of patients: 2
- SAQ Question 1-1 Severely limited, percent of patients: (0.11%)
- SAQ Question 1-1 Slightly limited, number of patients: 95
- SAQ Question 1-1 Slightly limited, percent of patients: (5.45%)
- SAQ Question 1-2 Mildly limited, number of patients: 32
- SAQ Question 1-2 Mildly limited, percent of patients: (1.84%)

From patent US9211310B2, “Use of a Chinese medicine composition in preparing medicaments for treating secondary prevention of myocardial infarction” (TASLY PHARMACEUTICAL GROUP CO., LTD, priority 2010, dated 2015)
